Here are results for one compound from ChEMBL document CHEMBL6178002, “Identification of a RANKL/TNF-α Dual-Inhibitor as a Potential Disease-Modifying Agent for the Treatment of Knee Osteoarthritis” (J Med Chem, 2025).

Calls of active or inactive are those of the source. The rule behind the calls is not given here.

For series [1], the system named is Bone marrow macrophage. The series can be described thus: Inhibition of RANKL/M-CSF-induced osteoclastogenesis in bone marrow macrophage cells (unknown origin) assessed as decrease in c-Fos mRNA level at 1 uM by RT-qPCR analysis. The class given is functional, cell-based. As to conditions: time <= 5.0 day.
The test system of series [2] is Bone marrow macrophage. The series is described as follows: Inhibition of RANKL/M-CSF-induced osteoclastogenesis in bone marrow macrophage cells (unknown origin) assessed as decrease in cathepsin K mRNA level at 1 uM by RT-qPCR analysis. The class given is functional, cell-based. As to conditions: time <= 5.0 day. For orientation: Real-time PCR tracks product formation cycle by cycle.

Series [3] can be described thus: Inhibition of RANKL/M-CSF-induced osteoclastogenesis in male C57/BL6 mouse bone marrow cells at 1 uM incubated for 5 to 7 days by TRAP staining based analysis relative to control. The class given is functional. As to conditions: C57/BL6, Bone marrow cell, time 5-7 day.
The subject of series [4] is Bone marrow macrophage. The series can be described thus: Inhibition of RANKL/M-CSF-induced osteoclastogenesis in bone marrow macrophage cells (unknown origin) assessed as decrease in NFATC1 level at 1 uM by Western blot analysis. The class given is functional, cell-based. Particulars: time <= 5.0 day. (A western blot detects proteins with antibodies after separation by electrophoresis.)

The test system of series [5] is Bone marrow macrophage. The series can be described thus: Inhibition of RANKL/M-CSF-induced osteoclastogenesis in bone marrow macrophage cells (unknown origin) assessed as decrease in c-Fos level incubated for 48 hrs by Western blot analysis. The class given is functional, cell-based. As to conditions: dose <= 2.5 µM.
Series [6] concerns RAW264.7. The series is described as follows: Anti-inflammatory activity in LPS-stimulated mouse RAW264.7 cells assessed as decrease in TNF-alpha level at 10 uM preincubated for 24 hrs followed by LPS addition measured after 2 hrs by RT-qPCR analysis. The class given is functional, cell-based. Particulars: time 26.0 hrs.
The subject of series [7] is Bone marrow macrophage. The series can be described thus: Inhibition of RANKL/M-CSF-induced osteoclastogenesis in bone marrow macrophage cells (unknown origin) assessed as decrease in TRAP mRNA level at 1 uM by RT-qPCR analysis. The class given is functional, cell-based. As to conditions: time <= 5.0 day.
Series [8] deals with Bone marrow macrophage. The series can be described thus: Inhibition of RANKL/M-CSF-induced osteoclastogenesis in bone marrow macrophage cells (unknown origin) assessed as decrease in TRAP mRNA level incubated for 48 hrs by RT-qPCR analysis. The class given is functional, cell-based. Particulars: dose <= 5.0 µM.
The test system of series [9] is RAW264.7. The series can be described thus: Anti-inflammatory activity in LPS-stimulated mouse RAW264.7 cells assessed as decrease in IL-1beta level at 10 uM preincubated for 24 hrs followed by LPS addition measured after 2 hrs by RT-qPCR analysis. As to conditions: time 26.0 hrs. The class given is functional, cell-based.
For series [10], the system named is RAW264.7. The series is described as follows: Inhibition of NFkappaB activation in mouse RAW264.7 cells assessed as reduction in TNF-alpha-induced NF-kappaB p65 phosphorylation at 1 to 10 uM preincubated for 12 hrs followed by LPS/TNF-alpha addition measured after 2 hrs by Western blot analysis. The class given is cell-based. As to conditions: dose 1-10 µM, time 14.0 hrs.

The nature of series [11]: Cmax in male Sprague-Dawley rat at 1 mg/kg, iv measured for 0.25 to 24 hrs. Particulars: in vivo, time 0.25-24 hrs. The class given is ADME, organism-based.
A short description of series [12]: AUC (0 to t) in male Sprague-Dawley rat at 10 mg/kg, po measured for 0.25 to 24 hrs. The class given is ADME, organism-based. Particulars: in vivo, time 0.25-24 hrs.
The subject of series [13] is Bone marrow macrophage. The series is described as follows: Inhibition of RANKL/M-CSF-induced osteoclastogenesis in bone marrow macrophage cells (unknown origin) assessed as decrease in cathepsin K mRNA level incubated for 48 hrs by RT-qPCR analysis. As to conditions: dose <= 5.0 µM. The class given is functional, cell-based.
Series [14] concerns the target T1, Tumor necrosis factor ligand superfamily member 11 (Homo sapiens, UniProt O14788).
T1 sequence (O14788 whole entry): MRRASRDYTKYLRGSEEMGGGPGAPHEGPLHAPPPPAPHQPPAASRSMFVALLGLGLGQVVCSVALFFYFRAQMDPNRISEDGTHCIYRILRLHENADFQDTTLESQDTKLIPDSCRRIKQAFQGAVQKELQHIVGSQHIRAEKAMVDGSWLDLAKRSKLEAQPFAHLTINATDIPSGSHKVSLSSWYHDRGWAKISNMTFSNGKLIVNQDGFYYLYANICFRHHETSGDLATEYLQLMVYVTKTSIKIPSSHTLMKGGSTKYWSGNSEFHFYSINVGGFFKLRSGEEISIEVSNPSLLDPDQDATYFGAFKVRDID
The series can be described thus: Binding affinity to CM5 chip-immobilized human RANKL assessed as dissociation constant by SPR analysis.

Series [15] relates to Bone marrow macrophage. The series is described as follows: Inhibition of RANKL/M-CSF-induced osteoclastogenesis in bone marrow macrophage cells (unknown origin) assessed as decrease in NFATC1 mRNA level at 1 uM by RT-qPCR analysis. The class given is functional, cell-based. As to conditions: time <= 5.0 day.
The test system of series [16] is Bone marrow macrophage. The series can be described thus: Inhibition of RANKL/M-CSF-induced osteoclastogenesis in bone marrow macrophage cells (unknown origin) assessed as decrease in NFATC1 level incubated for 48 hrs by Western blot analysis. The class given is functional, cell-based. Particulars: dose <= 2.5 µM.
Series [17] deals with Bone marrow macrophage. The series can be described thus: Inhibition of RANKL/M-CSF-induced osteoclastogenesis in bone marrow macrophage cells (unknown origin) assessed as decrease in cathepsin K level at 1 uM by Western blot analysis. The class given is functional, cell-based. As to conditions: time <= 5.0 day.
For another series, the species on record is Rattus norvegicus. The series can be described thus: Anti-inflammatory activity in male Sprague-Dawley rat model of ACLT-induced osteoarthritis assessed as reduction in surface temperature in arthritic joint at 50 to 100 ug, IART treated weekly once for 8 weeks by infrared imaging analysis. As to conditions: dose 50-100 µg. The class given is functional, organism-based.

Series [18] in a line: Cytotoxicity against bone marrow macrophage cells (unknown origin) assessed as cell viability at 10 uM incubated for 24 hrs by CCK8 assay relative to control. The class given is toxicity, cell-based. Particulars: read-out: Activity. Background: Tetrazolium dyes change colour on reduction, which living cells bring about.

Regarding `Cc1cccc(C)c1NC(=O)[C@@H]1Cc2c([nH]c3ccccc23)C2(CN(c3ccccc3)C2)N1`, the inhibition entry in the series on Bone marrow macrophage [1] is “Time-dependent-effect”; with Bone marrow macrophage [2], “Time-dependent-effect”; with Bone marrow macrophage [4], “Time-dependent-effect”; with Bone marrow macrophage [5], “Dose-dependent-effect”; in the series on Bone marrow macrophage [7], “Time-dependent-effect”; with Bone marrow macrophage [8] it was “Dose-dependent-effect”. The inhibition result was “Dose-dependent-effect” in the series on Bone marrow macrophage [13], “Time-dependent-effect” in the series with Bone marrow macrophage [15], “Dose-dependent-effect” in the series with Bone marrow macrophage [16] and “Time-dependent-effect” in the series with Bone marrow macrophage [17]. Further, the inhibition at 1 µM in series [3] was 98.6%. In addition, the outcome in the series with RAW264.7 [6], in the series on RAW264.7 [9] and in the series listed under Rattus norvegicus was Active. In addition, the inhibition entry with RAW264.7 [10] is “Active”. Also, in series [11], the peak concentration (Cmax) was found to be 338 ng/mL. Also, in [12], the exposure AUC(0-t) stood at 1620 ng·h/mL. The equilibrium dissociation constant (Kd) in series [14] is 3.98 µM. Further, in series [18], the viability at 24 h, 10 µM amounted to 110%.

By inhibition is commonly meant the change of the read-out against control, counted positive when it falls. A word on the Cmax: it is the highest concentration seen after dosing. As a reminder, the AUC(0-t) is exposure summed from dosing to a finite time, without extrapolation to infinity. A low value points to less exposure. Broadly, the Kd is the equilibrium constant for the complex coming apart.
